Common to all, as to assay type: in vivo
Experiment [1] concerns soybean (Glycine max -- var. Winchester). Put plainly: pre-emergence herbicidal activity, soybean. The settings on record: 1 kg/Ha, about fourteen days, read-out: pre-emergence herbicidal activity (% control) SOY. The method, then: (§1) This example sets forth the methods of herbicidal testing conducted on the specific compounds set forth below. Specifically, the compounds referenced below were tested for pre- and post-emergence herbicidal activity using a variety of crops and weeds. The test plants include, but are not limited to, soybean (Glycine max -- var. Winchester), field corn (Zea mays var. Pioneer 3732), wheat (Triticum aestivum var. Lew), morningglory (Ipomea lacunosa or Ipomea hederacea), velvetleaf (Abutilon theophrasti), green foxtail (Setaria viridis), Johnsongrass (Sorghum halepense), blackgrass (Aloepecurus myosuroides), common chickweed (Stellaria media), and common cocklebur (Xanthium strumarium L.).
(§2) In the post-emergence test, seeds of the plant species named above were planted in flats containing the appropriate soil mixture where they were maintained to allow the seeds to germinate. When the plants in these flats reached the proper stage of growth, flats for the pre-emergence tests were planted in a like manner. The flats containing the post-emergence and pre-emergence test plant species were then sprayed with an appropriately concentrated water/acetone solution of test compound. Once treated the flats were maintained, along with untreated controls, for about fourteen days. All treated plants were then examined for phytotoxicity, which was expressed as percent control where 0 is no effect and 100 is complete control. Effective rates of application for the compounds of the present invention range from 0.001 to 3 kg/ha, more likely from […] to 1 Kg/ha.
(§3) Herbicidal activity data at selected application rates are in Tables 4 and 5. The test compounds are identified by numbers correspond to those in Table 1.
(§4) Rate of application of test compound is 1 kg/Ha
(§5) SOY is soybean, WHT is wheat, CRN is corn, ABUTH is velvetleaf, IPOSS is
(§6) morningglory, STEME is chickweed, XANPE is cocklebur, ALOMY is blackgrass, […]

Experiment [2] has as its system wheat (Triticum aestivum var. Lew). Put plainly: pre-emergence herbicidal activity, wheat. The settings on record: 1 kg/Ha, about fourteen days, read-out: pre-emergence herbicidal activity (% control) WHT. The method, then: as §1, §2, §3, §4, §5, §6
Experiment [3] relates to field corn (Zea mays var. Pioneer 3732). Briefly: pre-emergence herbicidal activity, corn. The settings on record: 1 kg/Ha, about fourteen days, read-out: pre-emergence herbicidal activity (% control) CRN. The method, then: as §1, §2, §3, §4, §5, §6
Experiment [4] has as its system velvetleaf (Abutilon theophrasti). Briefly: pre-emergence herbicidal activity, velvetleaf. Conditions: 1 kg/Ha, about fourteen days, read-out: pre-emergence herbicidal activity (% control) ABUTH. The method, then:
as §1, §2, §3, §4, §5, §6

The subject of experiment [5] is morningglory (Ipomea lacunosa or Ipomea hederacea). Put plainly: pre-emergence herbicidal activity, morningglory. Conditions: Ipomoea, 1 kg/Ha, about fourteen days, read-out: pre-emergence herbicidal activity (% control) IPOSS. The method, then:
as §1, §2, §3, §4, §5, §6

Experiment [6] relates to common chickweed (Stellaria media). Put plainly: pre-emergence herbicidal activity, chickweed. The settings on record: 1 kg/Ha, about fourteen days, read-out: pre-emergence herbicidal activity (% control) STEME. The method, then:
as §1, §2, §3, §4, §5, §6

Experiment [7] has as its system common cocklebur (Xanthium strumarium L.). Briefly: pre-emergence herbicidal activity, cocklebur. Conditions: 1 kg/Ha, about fourteen days, read-out: pre-emergence herbicidal activity (% control) XANPE. The method, then:
as §1, §2, §3, §4, §5, §6

Experiment [8] deals with blackgrass (Aloepecurus myosuroides). Put plainly: pre-emergence herbicidal activity, blackgrass. The settings on record: Alopecurus myosuroides, 1 kg/Ha, about fourteen days, read-out: pre-emergence herbicidal activity (% control) ALOMY. The method, then: as §1, §2, §3, §4, §5, §6
Experiment [9] has as its system green foxtail (Setaria viridis). Put plainly: pre-emergence herbicidal activity, green foxtail. Conditions: 1 kg/Ha, about fourteen days, read-out: pre-emergence herbicidal activity (% control) SETVI. The method, then: as §1, §2, §3, §4, §5, §6
The subject of experiment [10] is Johnsongrass (Sorghum halepense). Put plainly: pre-emergence herbicidal activity, johnsongrass. Conditions: 1 kg/Ha, about fourteen days, read-out: pre-emergence herbicidal activity (% control) SORHA. The method, then: as §1, §2, §3, §4, §5, §6
Experiment [11] relates to soybean (Glycine max -- var. Winchester). Put plainly: post-emergence herbicidal activity, soybean. Conditions: 1 Kg/Ha, about fourteen days, read-out: post-emergence herbicidal activity (% control) SOY. The method, then: as §1, §2, §3, §5
(§7) morningglory, STEME is chickweed, XANPE is cocklebur, ALOMY is blackgrass,
(§8) Rate of application of test compound is 1 Kg/Ha. The definitions as shown under Table 4 apply to Table 5.

Experiment [12] concerns wheat (Triticum aestivum var. Lew). Briefly: post-emergence herbicidal activity, wheat. Conditions: 1 Kg/Ha, about fourteen days, read-out: post-emergence herbicidal activity (% control) WHT. The method, then: as §1, §2, §3, §5, §7, §8
In experiment [13] the test system is field corn (Zea mays var. Pioneer 3732). Put plainly: post-emergence herbicidal activity, corn. Conditions: 1 Kg/Ha, about fourteen days, read-out: post-emergence herbicidal activity (% control) CRN. The method, then:
as §1, §2, §3, §5, §7, §8

Experiment [14] relates to velvetleaf (Abutilon theophrasti). Put plainly: post-emergence herbicidal activity, velvetleaf. Conditions: 1 Kg/Ha, about fourteen days, read-out: post-emergence herbicidal activity (% control) ABUTH. The method, then: as §1, §2, §3, §5, §7, §8
Experiment [15] concerns morningglory (Ipomea lacunosa or Ipomea hederacea). Briefly: post-emergence herbicidal activity, morningglory. The settings on record: Ipomoea, 1 Kg/Ha, about fourteen days, read-out: post-emergence herbicidal activity (% control) IPOSS. The method, then:
as §1, §2, §3, §5, §7, §8

Experiment [16] relates to common cocklebur (Xanthium strumarium L.). Briefly: post-emergence herbicidal activity, cocklebur. The settings on record: 1 Kg/Ha, about fourteen days, read-out: post-emergence herbicidal activity (% control) XANPE. The method, then: as §1, §2, §3, §5, §7, §8
The subject of experiment [17] is green foxtail (Setaria viridis). Briefly: post-emergence herbicidal activity, green foxtail. Conditions: 1 Kg/Ha, about fourteen days, read-out: post-emergence herbicidal activity (% control) SETVI. The method, then:
as §1, §2, §3, §5, §7, §8

The test system of experiment [18] is Johnsongrass (Sorghum halepense). Briefly: post-emergence herbicidal activity, johnsongrass. Conditions: 1 Kg/Ha, about fourteen days, read-out: post-emergence herbicidal activity (% control) SORHA. The method, then:
as §1, §2, §3, §5, §7, §8

With `CCOC(=O)CN1Cc2c(-n3c(=O)cc(C(F)(F)F)n(C)c3=O)ccc(Cl)c2C1=O` [Compound 7], the activity at 1000 g/ha in experiment [1] stood at 70%; in experiment [2], 30%; in [3], 70%; in [4] it was 100%; in [5] it was 80%; in experiment [6], 60%. In addition, the activity at 1000 g/ha came to 50% in experiment [7]; 40% in [8]; 70% in [9]; 55% in experiment [10]; 60% in experiment [11]; 20% in [12]. The activity at 1000 g/ha in experiment [13] was 40%; in [14] it was 80%; in experiment [15], 40%; in experiment [16], 60%; in experiment [17], 60%; in [18] it was 40%.

`C#CCN1Cc2c(-n3c(=O)cc(C(F)(F)F)n(C)c3=O)ccc(Cl)c2C1=O` [Compound 8]: the activity at 1000 g/ha in experiment [1], in experiment [2], in experiment [3], in experiment [4], in [5] and in [6] was 100% each time. Also, the activity at 1000 g/ha in experiment [7], in experiment [8], in [9], in experiment [10], in experiment [11] and in experiment [12] was 100% in each case. For the same molecule, the activity at 1000 g/ha in [13], in [14], in [15], in [16], in experiment [17] and in experiment [18] was 100% each time.

Consider `CN1Cc2c(-n3c(=O)cc(C(F)(F)F)n(C)c3=O)ccc(Cl)c2C1=O` [Compound 9], for which the activity at 1000 g/ha in experiment [1], in experiment [2], in experiment [3], in [4], in [5] and in experiment [6] was 100% each time. Moreover, the activity at 1000 g/ha in experiment [7] was found to be 100%; in experiment [8], 100%; in experiment [9], 100%; in [10] it was 100%; in experiment [11] it was 100%; in experiment [12], 50%. The activity at 1000 g/ha in experiment [13] stood at 50%; in [14], 100%; in experiment [15], 90%; in [16], 70%; in experiment [17], 70%; in experiment [18] it was 50%.

Regarding `Cn1c(C(F)(F)F)cc(=O)n(-c2ccc(Cl)c3c2CN(Cc2ccccc2)C3=O)c1=O` [Compound 10], the activity at 1000 g/ha in [1] was 80%; in experiment [2], 70%; in experiment [3] it was 90%; in [4], 100%; in experiment [5] it was 80%; in [6], 100%. In addition, the activity at 1000 g/ha in experiment [7] was found to be 80%; in experiment [8], 80%; in [9] it was 100%; in experiment [10], 100%; in experiment [11], 65%; in experiment [12], 40%. The activity at 1000 g/ha in experiment [13] came out at 60%; in [14], 100%; in [15] it was 40%; in experiment [16], 50%; in experiment [17] it was 60%; in experiment [18], 40%.

Regarding `CCCCN1Cc2c(-n3c(=O)cc(C(F)(F)F)n(C)c3=O)ccc(Cl)c2C1=O` [Compound 11], the activity at 1000 g/ha in [1], in experiment [2], in experiment [3], in experiment [4], in experiment [5] and in experiment [6] was 100% in each case. Moreover, the activity at 1000 g/ha in experiment [7] turned out to be 100%; in experiment [8], 100%; in [9], 100%; in experiment [10], 100%; in [11], 95%; in experiment [12], 100%. Besides, the activity at 1000 g/ha in experiment [13] is 80%; in [14], 100%; in experiment [15], 95%; in experiment [16], 100%; in [17], 100%; in experiment [18] it was 90%.

Regarding `C=CCON1Cc2c(-n3c(=O)cc(C(F)(F)F)n(C)c3=O)ccc(Cl)c2C1=O` [Compound 17], the activity at 1000 g/ha in [1], in experiment [2], in [3], in [4], in experiment [5] and in [6] was 100% throughout. The activity at 1000 g/ha was 100% in experiment [7]; 100% in experiment [9]; 100% in [10]; 100% in experiment [11]; 100% in [12]; 90% in experiment [13]. Further, the activity at 1000 g/ha in [14] is 100%; in experiment [15] it was 90%; in [16] it was 100%; in [17], 100%; in [18], 100%.

Regarding `Cn1c(C(F)(F)F)cc(=O)n(-c2ccc(Cl)c3c2CN(O)C3=O)c1=O` [Compound 18], the activity at 1000 g/ha in [1] stood at 95%; in [2], 60%; in experiment [3], 100%; in experiment [4], 100%; in experiment [5], 100%; in experiment [7], 100%. In addition, the activity at 1000 g/ha in experiment [9] is 100%; in experiment [10], 100%; in [11], 80%; in [12] it was 50%; in experiment [13], 70%; in [14] it was 100%. Moreover, the activity at 1000 g/ha turned out to be 100% in experiment [15], 95% in experiment [16], 70% in experiment [17] and 65% in experiment [18].

The record behind these values is patent US6277847A, “Herbicidal isoindolinonyl-and 3,4-dihydroisoquinolonyl-substituted heterocycles” (FMC Corporation, priority 2000, dated 2001).
